Measured values published in ChEMBL document CHEMBL5252595, “A Quarter Century of Marine Biodiscovery in Algoa Bay, South Africa” (J Nat Prod, 2023).
Each block holds one compound with its values, some of them ahead of it.

Tests used:
MDA-MB-231 = assay: Anticancer activity against human MDA-MB-231 cells assessed as cell growth incubated for 24 hrs by MTT assay; type: functional, cell-based; conditions: MDA-MB-231, 24 h
[1] = Anticancer activity against human U-87 MG cells assessed as cell growth inhibition; type: functional, U-87MG ATCC; conditions: read-out: LC50 (the source's name)
NCI-H460 = assay: Anticancer activity against human NCI-H460 cells assessed as cell growth incubated for 48 hrs by MTT assay; type: functional, cell-based; conditions: NCI-H460, 48 h
HCT-116 = assay: Anticancer activity against human HCT-116 cells assessed as cell growth inhibition; type: functional; conditions: read-out: LC50 (the source's name)
OVCAR-3 = assay: Anticancer activity against human OVCAR-3 cells assessed as cell growth inhibition; type: functional, cell-based
A549 = assay: Anticancer activity against human A549 cells assessed as cell growth inhibition; type: functional, cell-based
LOX IMVI = assay: Anticancer activity against human LOX IMVI cells assessed as cell growth inhibition; type: functional, cell-based
SNB-19 = assay: Anticancer activity against human SNB-19 cells assessed as cell growth inhibition; type: functional, cell-based
[2] = Anticancer activity against human WHCO1 cells assessed as cell growth incubated for 24 hrs by MTT assay; type: functional, cell-based; conditions: WHCO1, 24 h

IC50 (MDA-MB-231): 74 µM
Structure (SMILES): O=C1Cc2ccc(Br)cc2N1

Structure (SMILES): CO[C@H]1[C@H](O[C@@H]2C[C@@H]3C/C=C/C(=O)O[C@H](CO)C[C@H](O)[C@@H]4C[C@H](C)[C@H](C/C=C\C=C\[C@H](C)C[C@H](C2)O3)O4)O[C@@H](C)[C@H](O)[C@H]1O
CC50 [1]: 0.00038 µM | IC50 (NCI-H460): 0.012 µM

IC50 (MDA-MB-231): 73 µM
Structure (SMILES): Clc1c[nH]c2cc(Br)ccc12

Structure (SMILES): CC.CCCCCCCC(=O)OC[C@@H]1C[C@H](O)[C@@H]2C[C@H](C)[C@H](C/C=C\C=C\[C@H](C)C[C@@H]3C[C@H](O[C@@H]4O[C@@H](C)[C@H](O)[C@@H](O)[C@H]4OC)C[C@H](C/C=C/C(=O)O1)O3)O2
CC50 [1]: 0.061 µM | CC50 (HCT-116): 0.054 µM

IC50 (OVCAR-3): 30 µM | IC50 (A549): 30 µM
Structure (SMILES): CCCCCCCC/C=C/C=C/[C@@H](C)N
IC50 (LOX IMVI): 30 µM | IC50 (SNB-19): 30 µM

Structure (SMILES): C/C(=C\Cc1cc(O)c(C)cc1O)CC/C=C(\C)CC(=O)CC(C)C
IC50 [2]: 9.5 µM

Structure (SMILES): CCCC(=O)O[C@@H]1C[C@H]2C[C@@H](O[C@@H]3O[C@@H](C)[C@@H](O)[C@@H](O)[C@H]3OC)C[C@@H](C[C@@H](C)/C=C/C=C\C[C@@H]3O[C@@H](C[C@@H]3C)[C@@H](O)C[C@H]3C[C@@]1(O)C(=O)O3)O2
IC50 (NCI-H460): 0.044 µM

IC50 (MDA-MB-231): 118 µM
Structure (SMILES): Brc1ccc2c(Br)c[nH]c2c1

Structure (SMILES): O=C1C[C@H]2S[C@H]3C[C@]2(C=C1Br)C1=C(N3)C(=O)c2[nH]cc3c2C1=NCC3 [DISCORHABDINE A]
IC50 [2]: 0.017 µM
